Test results as given in patent US12491182B2, “Polymorphs of triazole antifungal compound PC945” (Pulmocide Limited, priority 2019, dated 2025).
Several values for one entry are separate records, joined by “and”; a condition that tells them apart may be missing. Equal values may be shown once. Marks after values point to notes of the source that are not given here.

Tests used:
[1] = Comparative pharmacokinetic profiling of Forms 1 and 2 by inhalation administration to rats; format: in vivo, male RccHan:WIST rat; conditions: for Drug Concentration in Animal by No. (plasma): individual animals
Source text: A study was undertaken to compare the time-course of unchanged drug concentrations in plasma following a single inhalation dose of either Form 1 or Form 2 in rats.
The male RccHan™:WIST rat was considered a suitable species and strain because of its acceptance by regulatory agencies. The inhalation route of administration was chosen to simulate the conditions of clinical administration. A total of 14 of animals (six animals per group with two spare animals), 10 to 12 weeks of age and weighing 306 to 341 g at the start of drug treatment, were used in the study. Treatment consisted of a single 2 hour inhalation exposure with a nebulised formulation of either micronised Form 1 (98.94% purity) to Group 1 animals or micronised Form 2 (98.10% purity) to Group 2 animals. The pharmacokinetic parameters of the two polymorphic forms were determined to support pharmacology and toxicology studies in animals and clinical studies in man.
Suspensions were manufactured by first preparing a concentrated solution of the surfactants (wetting solution) and a saline solution. These were then used to make the vehicle. A saline solution was prepared as follows. Sodium chloride (50 g) was weighed into a 5000 mL volumetric flask, made up to volume with water, stirred with a magnetic stirrer for 10 min and then passed through a 0.22 μm membrane filter. Wetting solution was prepared as follows. Lipoid S100 (10 g) was weighed into a 2000 mL Duran bottle, 1000 g of propylene glycol was added and the mixture was stirred on a Silverson mixer equipped with a 1″ high shear screen for 1 min at 8000 rpm and then passed through a 0.22 μm membrane filter. Vehicle was prepared as follows. The wetting solution (500 mL) was transferred into a 5000 mL volumetric flask, made to volume with saline solution, stirred with a magnetic stirrer for 10 min and then passed through a 0.22 μm membrane filter.
A 1000 mL batch of 4 mg/mL suspension of Compound I was prepared as follows. Compound I (4.00 g) was weighed into a small beaker, 100 mL of wetting solution was added and the mixture was stirred with a Silverson mixer equipped with a 1″ high shear screen for 5 min at 8000 rpm. The mixture was then transferred into a 5000 mL Duran bottle using saline solution and stirred using a Silverson mixer equipped with a 1″ high shear screen for 5 min at 8000 rpm, after which it was stored between 2 and 8° C. Higher or lower strength suspensions (range 0.2 to 20 mg/mL) were prepared by adjusting the input weight of API as appropriate for higher mg/mL suspensions or by further diluting with vehicle for lower mg/mL suspensions. All formulations were magnetically stirred for at least 30 min, and assessed visually prior to administration.
Rats were acclimatised to the inhalation dosing procedure for three consecutive days prior to dosing. Animals were treated with the test substance by aerosol inhalation administration for 120 min via snout only exposure, at a target aerosol concentration of 25.2 μg/L. The estimations of inhaled dose from an exposure duration of 2 hr and an assumed body weight of 300 g were calculated using the formula:
[formula] where: C is the aerosol concentration (μg/L); RMV is the respiratory minute volume (L/min); D is the duration of exposure (120 mins) and BW is the group mean body weight (kg). The mean achieved aerosol concentrations, estimated inhaled dose and particle size distribution (PSD) summary data are presented below. (Table 14).
Venous blood samples (0.3 mL) were taken from the tail vein of animals and samples collected after dosing (2 hr from the start of dose administration) and thereafter at times 3, 4, 6, 8, 12, 24, 28, 32, 36 and 48 hr following treatment. Samples were treated with K2EDTA anticoagulant, spun at 2000 g for 10 min at 4° C. and then stored frozen (−20° C.±10) whilst awaiting analysis. Plasma samples were subsequently analysed for Compound I by LGC using a validated LC-MS/MS method. […]

[2] = Equilibration of Forms 1 and 2, singularly and as mixtures, in MEK and THF alone and with 5% water; format: physicochemical; conditions: 5-10 °C, both equilibration temperatures
Source text: The influence of the initial polymorphic composition on the fate of samples was investigated by equilibration of the either the single polymorphs or an equal mixture of both in anhydrous MEK and THF as well as in the same solvents doped with 5% water.
The results obtained (Table 13) reveal that in anhydrous media the two polymorphs retain their structural integrity, if present singularly (Table 13, Entries 1, 2, 4 and 5). […] (Table 13, Entry 4) which may be attributable to the presence of traces of moisture in a highly hygroscopic solvent.
The results observed when 5% water was admixed to the two solvents indicate that the predominance of the two forms reversed under these conditions, taking kinetic factors into account. In aqueous MEK (5% water) the single polymorphs were again unchanged for the duration of the experiment (Table 13, Entries 7 and 8). In contrast, the binary polymorphic mixture converted into Form 1 in this medium (Table 13, Entry 9). In aqueous THF (5% water) the dominance of Form 1 as the most preferred polymorph was especially evident. In this environment the suspension of Form 1 remained unchanged (Table 13, Entry 10), consistent with the outcome observed for aq MEK under the same conditions.
However, in THF doped with 5% water, both the suspension comprising the binary mixture, as well as that composed of the Form 2 polymorph alone, were transformed into suspensions containing only Form 1 (Table 13, Entries 11 and 12).

[3] = Thermo-gravimetric analysis (degradation onset); format: physicochemical; conditions: sample prepared from toluene
Experimental: TGA data were collected on a TA Instrument Q500 TGA, equipped with a 16 position auto-sampler. The instrument was temperature calibrated using certified Alumel and Nickel. Typically 5-10 mg of sample was loaded onto a pre-tared aluminium DSC pan and heated at 10° C./min from ambient temperature to 350° C. A nitrogen purge at 60 mL/min was maintained over the sample. The instrument control software was Advantage for Q Series v2.5.0.256 and Thermal Advantage v5.5.3 and the data were analysed using Universal Analysis v4.5A.
TGA profiling was carried out according to methods described above and was used to determine the amount of residual solvents associated with the polymorphs of Compound I. In addition, it was used to measure the quantity of solvent released on heating from the solvated forms of Compound I. Typical residual solvent levels found in samples of the polymorphs of Compound I are as follows.

Cc1cc(N2CCN(c3ccc(C(=O)Nc4ccc(F)cc4)cc3)CC2)ccc1OC[C@@H]1CO[C@@](Cn2cncn2)(c2ccc(F)cc2F)C1 [Form 1, 4-(4-(4-(((3R,5R)-5-((1H-1,2,4-triazol-1-yl)methyl)-5-(2,4-difluorophenyl)tetrahydrofuran-3-yl)methoxy)-3-methylphenyl)piperazin-1-yl)-N-(4-fluorophenyl)benzamide]
Tmax ([1]; RccHan:WIST, rat, plasma, inhaled or intranasal, male rats, single 2 hr inhalation, nominal dose 2.2 mg/kg, from start of exposure, read-out: Tmax): 6 h
Drug Concentration in Animal by No. (plasma) ([1]; male rats, inhalation, nominal 2.2 mg/kg, 3 hr from start of exposure): 5.31 ng/mL and 4.35 ng/mL and 2.41 ng/mL
Drug Concentration in Animal by No. (plasma) ([1]; male rats, inhalation, nominal 2.2 mg/kg, 4 hr from start of exposure): 4.73 ng/mL and 6.32 ng/mL and 3.78 ng/mL
Drug Concentration in Animal by No. (plasma) ([1]; male rats, inhalation, nominal 2.2 mg/kg, 6 hr from start of exposure): 5.38 ng/mL and 3.97 ng/mL and 5.49 ng/mL
Drug Concentration in Animal by No. (plasma) ([1]; male rats, inhalation, nominal 2.2 mg/kg, 8 hr from start of exposure): 3.28 ng/mL and 2.88 ng/mL
Drug Concentration Mean (plasma) ([1]; male rats, inhalation, nominal 2.2 mg/kg, 8 hr, group mean): 3.08 ng/mL
Drug Concentration in Animal by No. (plasma) ([1]; male rats, inhalation, nominal 2.2 mg/kg, 12 hr from start of exposure): 4.05 ng/mL and 3.64 ng/mL
Drug Concentration in Animal by No. (plasma) ([1]; male rats, inhalation, nominal 2.2 mg/kg, 24 hr from start of exposure): 2.47 ng/mL and 3.00 ng/mL and 3.85 ng/mL and 2.75 ng/mL and 2.02 ng/mL and 3.03 ng/mL
Drug Concentration in Animal by No. (plasma) ([1]; male rats, inhalation, nominal 2.2 mg/kg, 28 hr from start of exposure): 1.85 ng/mL and 2.22 ng/mL and 3.92 ng/mL and 1.87 ng/mL and 2.04 ng/mL
Drug Concentration in Animal by No. (plasma) ([1]; male rats, inhalation, nominal 2.2 mg/kg, 32 hr from start of exposure): 1.36 ng/mL and 1.85 ng/mL and 2.79 ng/mL and 1.66 ng/mL and 2.20 ng/mL and 1.32 ng/mL
Drug Concentration Mean (plasma) ([1]; male rats, inhalation, nominal 2.2 mg/kg, 32 hr, group mean): 1.86 ng/mL
Drug Concentration in Animal by No. (plasma) ([1]; male rats, inhalation, nominal 2.2 mg/kg, 36 hr from start of exposure): 1.21 ng/mL and 1.36 ng/mL and 1.74 ng/mL and 1.70 ng/mL and 1.01 ng/mL and 1.80 ng/mL
Drug Concentration Mean (plasma) ([1]; male rats, inhalation, nominal 2.2 mg/kg, 36 hr, group mean): 1.47 ng/mL
Drug Concentration in Animal by No. (plasma) ([1]; male rats, inhalation, nominal 2.2 mg/kg, 48 hr from start of exposure): 1.10 ng/mL and 1.45 ng/mL and 1.28 ng/mL and 1.26 ng/mL and 1.19 ng/mL
Drug Concentration Mean (plasma) ([1]; male rats, inhalation, nominal 2.2 mg/kg, IAD (immediately after dosing), group mean): 1.11 ng/mL
Drug Concentration in Animal by No. (plasma) ([1]; male rats, inhalation, nominal 2.2 mg/kg, IAD (immediately after dosing)): 1.16 ng/mL and 0.826 ng/mL and 1.35 ng/mL
AUCt dose normalised ([1]; male rats, inhalation, AUCt of Form 2 normalised to dose achieved for Form 1 (2.48 mg/kg), 2.48 mg/kg): 122 ng·h/mL
time up to which plasma concentrations remained quantifiable ([1]; male rats, inhalation, after the start of exposure (last sampling time)): 48 h
Cmax ([1]; male, RccHan:WIST, rat, plasma, inhaled or intranasal, 2.2 mg/kg, single 2 hr inhalation of nebulised aqueous suspension, nominal dose 2.2 mg/kg, read-out: Cmax (maximum mean plasma concentration)): 4.95 ng/mL
AUC(0-t) ([1]; male, RccHan:WIST, rat, plasma, inhaled or intranasal, 2.2 mg/kg, single 2 hr inhalation, nominal dose 2.2 mg/kg, 0-48 hr): 122 ng·h/mL
concentration at 3 h ([1]; male, RccHan:WIST, rat, plasma, inhaled, 2.2 mg/kg, inhalation, nominal 2.2 mg/kg, 3 hr, group mean, read-out: Drug Concentration Mean (plasma)): 4.02 ng/mL
concentration at 4 h ([1]; male, RccHan:WIST, rat, plasma, inhaled, 2.2 mg/kg, inhalation, nominal 2.2 mg/kg, 4 hr, group mean, read-out: Drug Concentration Mean (plasma)): 4.94 ng/mL
concentration at 6 h ([1]; male, RccHan:WIST, rat, plasma, inhaled, 2.2 mg/kg, inhalation, nominal 2.2 mg/kg, 6 hr, group mean, read-out: Drug Concentration Mean (plasma)): 4.95 ng/mL
concentration at 12 h ([1]; male, RccHan:WIST, rat, plasma, inhaled, 2.2 mg/kg, inhalation, nominal 2.2 mg/kg, 12 hr, group mean, read-out: Drug Concentration Mean (plasma)): 3.85 ng/mL
concentration at 24 h ([1]; male, RccHan:WIST, rat, plasma, inhaled, 2.2 mg/kg, inhalation, nominal 2.2 mg/kg, 24 hr, group mean, read-out: Drug Concentration Mean (plasma)): 2.85 ng/mL
concentration at 28 h ([1]; male, RccHan:WIST, rat, plasma, inhaled, 2.2 mg/kg, inhalation, nominal 2.2 mg/kg, 28 hr, group mean, read-out: Drug Concentration Mean (plasma)): 2.38 ng/mL
concentration at 48 h ([1]; male, RccHan:WIST, rat, plasma, inhaled, 2.2 mg/kg, inhalation, nominal 2.2 mg/kg, 48 hr, group mean, read-out: Drug Concentration Mean (plasma)): 1.26 ng/mL
Form by XRPD Post Equilibration ([2]; MEK (anhydrous)): 1
Form by XRPD Post Equilibration ([2]; MEK/5% Water): 1
Form by XRPD Post Equilibration ([2]; THF (anhydrous), Form 1 input: some evidence of Form 2 at 10 °C): 1^b
Form by XRPD Post Equilibration ([2]; THF/5% Water): 1
temperature from which degradation was evident (TGA) [3]: 320 °C
